Laboratory results taken from ChEMBL document CHEMBL1201862, “PubChem BioAssay data set” (2004).
Activity calls are given as the source filed them.

Columns and labels:
[1] = decrease of PhoP-driven GFP reporter signal, S. Typhimurium, dose response, PhoP regulon inhibitor project, purified and synthesized compounds, set 2 (AID 2831); assay type: functional
[2] = target: Nucleotide-binding oligomerization domain-containing protein 1 (Homo sapiens, UniProt Q9Y239); experiment: SAR analysis of compounds that inhibit NOD1 - Set 3. [Related pubchem assays (depositor defined):AID1566, AID1575, AID1578, AID1849, AID1852, AID2333, AID2335, AID2466]; assay type: functional
Tumor necrosis factor = Tumor necrosis factor (Homo sapiens, UniProt P01375); experiment: TNFa-triggered NF-kB activation inhibitors, SAR follow-up, cell-based, set 3 (AID 2801); assay type: functional
HEK293 = experiment: SAR analysis of compounds that are cytotoxic to HEK293 - Set 3. [Related pubchem assays (depositor defined):AID1575, AID1578, AID1848, AID1849, AID2001, AID2333, AID2334, AID2335, AID2337, AID2469]; assay type: functional, cell-based; settings: Homo sapiens
[3] = target: Nucleotide-binding oligomerization domain-containing protein 2 (Homo sapiens, UniProt Q9HC29); experiment: NOD2 signaling inhibitors, analog potency, SAR follow-up, cell-based, set 3 (AID 2799); assay type: functional
[4] = target: T1, Kappa-type opioid receptor (Homo sapiens, UniProt P41145); experiment: KOR agonist analogs, arrestin-GFP redistribution, SAR follow-up, imaging, image-based, set 3 (AID 488833); assay type: functional
Mu-type opioid receptor [5] = target: T2, Mu-type opioid receptor (Homo sapiens, UniProt P35372); experiment: SAR Analysis of Agonists of the MOR Receptor using an Image-Based Assay - Set 3. [Related pubchem assays (depositor defined):AID1777, AID1785, AID1786, AID1966, AID2133, AID2136, AID2284, AID2285, AID2352]; assay type: functional
[6] = target: T3, Delta-type opioid receptor (Homo sapiens, UniProt P41143); experiment: SAR Analysis of Agonists of the DOR Receptor using an Image-Based Assay - Set 3. [Related pubchem assays (depositor defined):AID1777, AID1786]; assay type: functional
[7] = target: T1, Kappa-type opioid receptor; experiment: SAR analysis of small molecule agonists of the kappa opioid receptor via a luminescent beta-arrestin assay - Set 3. [Related pubchem assays (depositor defined):AID1777, AID1785, AID1786, AID1966, AID2133, AID2136, AID2284, AID2500]; assay type: functional
[8] = Luminescence Cell-Based Dose Confirmation HTS to Identify Activators of 5'UTR Stem-Loop Driven Alpha-Synuclein mRNA Translation in H4 Neuroglioblastoma Cells. [Related pubchem assays: 1829 (Project Summary), 1814 (Primary HTS)]; assay type: functional
[9] = Luminescence Cell-Based Dose Response HTS to Identify Activators of Luciferase Translation or Activity in H4 […] Cells. [Related pubchem assays: 1829 (Project Summary), 1814 (Primary HTS)]; assay type: functional
H4 = experiment: Luminescence Cell-Based Dose Response HTS to Identify Activators of 5'UTR Stem-Loop Driven Prion Protein mRNA Translation in H4 Neuroglioblastoma Cells. [Related pubchem assays: 1829 (Project Summary), 1814 (Primary HTS)]; assay type: functional; settings: Homo sapiens
[10] = target: T1, Kappa-type opioid receptor; assay type: functional
Beta-galactosidase = Beta-galactosidase (Escherichia coli, UniProt Q8VNN2); assay type: functional
[11] = target: T1, Kappa-type opioid receptor; assay type: functional; remark: listed apart in the source
Mu-type opioid receptor [12] = target: T2, Mu-type opioid receptor; experiment: MOR agonists by imaging, SAR follow-up, image-based (AID 2352); assay type: functional
[13] = target: T3, Delta-type opioid receptor; experiment: DOR agonists, SAR follow-up, image-based (AID 2370); assay type: functional
[14] = target: T1, Kappa-type opioid receptor; experiment: KOR antagonists by imaging, SAR follow-up, image-based (AID 2348); assay type: functional
Mu-type opioid receptor [15] = target: T2, Mu-type opioid receptor; experiment: MOR antagonists, SAR follow-up, image-based (AID 2420); assay type: functional;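 further: compounds added before stimulation of receptor with agonist DAMGO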
[16] = target: T1, Kappa-type opioid receptor; experiment: KOR agonist analogs, imaging readout, SAR follow-up, image-based (AID 2359); assay type: functional
[17] = target: T3, Delta-type opioid receptor; experiment: DOR antagonists, SAR follow-up, image-based (AID 2357); assay type: functional
[18] = target: T1, Kappa-type opioid receptor; experiment: kappa opioid receptor blockers, cell-based, luminescence, beta-arrestin, SAR follow-up (AID 2285); assay type: functional

T3 sequence (P41143 whole entry): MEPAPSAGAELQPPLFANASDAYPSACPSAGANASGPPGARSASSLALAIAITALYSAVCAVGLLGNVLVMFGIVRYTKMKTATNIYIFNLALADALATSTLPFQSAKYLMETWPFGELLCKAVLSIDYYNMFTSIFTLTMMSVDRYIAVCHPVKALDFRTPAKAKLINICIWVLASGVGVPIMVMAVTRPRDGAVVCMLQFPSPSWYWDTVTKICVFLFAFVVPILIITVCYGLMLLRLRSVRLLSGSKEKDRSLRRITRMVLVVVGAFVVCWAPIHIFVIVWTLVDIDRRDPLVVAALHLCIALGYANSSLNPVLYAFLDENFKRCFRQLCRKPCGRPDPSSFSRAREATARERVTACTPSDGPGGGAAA
T2 sequence (P35372 whole entry): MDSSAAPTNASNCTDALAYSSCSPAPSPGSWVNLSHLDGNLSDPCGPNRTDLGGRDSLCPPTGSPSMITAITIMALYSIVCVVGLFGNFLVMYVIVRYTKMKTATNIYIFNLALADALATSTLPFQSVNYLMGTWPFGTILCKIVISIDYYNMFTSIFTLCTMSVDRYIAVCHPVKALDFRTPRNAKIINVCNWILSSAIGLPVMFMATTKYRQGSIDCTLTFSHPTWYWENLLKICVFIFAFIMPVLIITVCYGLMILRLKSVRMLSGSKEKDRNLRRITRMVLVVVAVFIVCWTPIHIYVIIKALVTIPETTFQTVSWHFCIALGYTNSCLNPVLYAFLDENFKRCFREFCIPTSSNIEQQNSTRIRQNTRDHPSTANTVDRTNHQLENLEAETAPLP
T1 sequence (P41145 whole entry): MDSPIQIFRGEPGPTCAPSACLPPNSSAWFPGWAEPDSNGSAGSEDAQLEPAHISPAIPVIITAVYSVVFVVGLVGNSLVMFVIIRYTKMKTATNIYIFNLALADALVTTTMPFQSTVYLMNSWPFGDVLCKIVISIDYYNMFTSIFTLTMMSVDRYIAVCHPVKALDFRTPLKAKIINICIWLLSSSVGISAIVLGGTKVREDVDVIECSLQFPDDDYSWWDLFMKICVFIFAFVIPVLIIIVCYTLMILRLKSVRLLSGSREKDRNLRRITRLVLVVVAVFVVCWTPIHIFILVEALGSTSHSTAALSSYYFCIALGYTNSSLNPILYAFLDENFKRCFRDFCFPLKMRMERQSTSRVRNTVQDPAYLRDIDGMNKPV
Chain of Beta-galactosidase (Q8VNN2 whole entry): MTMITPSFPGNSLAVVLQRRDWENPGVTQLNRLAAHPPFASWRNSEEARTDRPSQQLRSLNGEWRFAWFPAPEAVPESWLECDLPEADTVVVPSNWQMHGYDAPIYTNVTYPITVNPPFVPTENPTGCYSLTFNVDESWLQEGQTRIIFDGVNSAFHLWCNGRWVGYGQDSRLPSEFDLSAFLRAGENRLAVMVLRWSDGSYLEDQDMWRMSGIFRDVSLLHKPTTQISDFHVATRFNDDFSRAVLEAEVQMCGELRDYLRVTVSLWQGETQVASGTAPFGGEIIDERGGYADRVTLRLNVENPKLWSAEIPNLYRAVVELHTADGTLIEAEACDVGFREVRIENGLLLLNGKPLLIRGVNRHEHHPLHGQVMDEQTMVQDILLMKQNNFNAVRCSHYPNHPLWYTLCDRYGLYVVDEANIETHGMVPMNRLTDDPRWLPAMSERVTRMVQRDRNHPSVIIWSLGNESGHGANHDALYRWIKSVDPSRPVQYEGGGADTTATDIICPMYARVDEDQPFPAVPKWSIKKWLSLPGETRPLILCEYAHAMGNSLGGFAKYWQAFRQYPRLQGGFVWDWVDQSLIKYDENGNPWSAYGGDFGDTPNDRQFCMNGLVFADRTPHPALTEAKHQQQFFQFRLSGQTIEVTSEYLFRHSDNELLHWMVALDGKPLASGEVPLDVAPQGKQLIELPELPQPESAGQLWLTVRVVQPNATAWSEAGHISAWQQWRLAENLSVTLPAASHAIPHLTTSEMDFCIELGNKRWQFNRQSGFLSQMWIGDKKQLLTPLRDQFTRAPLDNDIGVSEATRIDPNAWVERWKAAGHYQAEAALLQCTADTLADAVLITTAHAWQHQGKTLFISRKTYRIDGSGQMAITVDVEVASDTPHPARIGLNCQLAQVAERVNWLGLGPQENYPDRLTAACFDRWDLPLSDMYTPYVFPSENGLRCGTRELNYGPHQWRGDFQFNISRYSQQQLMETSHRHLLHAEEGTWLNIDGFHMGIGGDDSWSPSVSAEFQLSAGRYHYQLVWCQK
Chain of Tumor necrosis factor (P01375 whole entry): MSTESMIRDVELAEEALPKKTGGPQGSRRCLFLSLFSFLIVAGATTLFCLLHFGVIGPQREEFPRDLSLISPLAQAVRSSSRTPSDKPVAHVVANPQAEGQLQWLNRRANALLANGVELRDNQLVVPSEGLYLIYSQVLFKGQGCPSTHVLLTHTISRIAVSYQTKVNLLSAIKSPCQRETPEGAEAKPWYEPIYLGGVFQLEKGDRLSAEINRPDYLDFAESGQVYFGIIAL
Chain of Nucleotide-binding oligomerization domain-containing protein 1 (Q9Y239 whole entry, the tested form may be a part): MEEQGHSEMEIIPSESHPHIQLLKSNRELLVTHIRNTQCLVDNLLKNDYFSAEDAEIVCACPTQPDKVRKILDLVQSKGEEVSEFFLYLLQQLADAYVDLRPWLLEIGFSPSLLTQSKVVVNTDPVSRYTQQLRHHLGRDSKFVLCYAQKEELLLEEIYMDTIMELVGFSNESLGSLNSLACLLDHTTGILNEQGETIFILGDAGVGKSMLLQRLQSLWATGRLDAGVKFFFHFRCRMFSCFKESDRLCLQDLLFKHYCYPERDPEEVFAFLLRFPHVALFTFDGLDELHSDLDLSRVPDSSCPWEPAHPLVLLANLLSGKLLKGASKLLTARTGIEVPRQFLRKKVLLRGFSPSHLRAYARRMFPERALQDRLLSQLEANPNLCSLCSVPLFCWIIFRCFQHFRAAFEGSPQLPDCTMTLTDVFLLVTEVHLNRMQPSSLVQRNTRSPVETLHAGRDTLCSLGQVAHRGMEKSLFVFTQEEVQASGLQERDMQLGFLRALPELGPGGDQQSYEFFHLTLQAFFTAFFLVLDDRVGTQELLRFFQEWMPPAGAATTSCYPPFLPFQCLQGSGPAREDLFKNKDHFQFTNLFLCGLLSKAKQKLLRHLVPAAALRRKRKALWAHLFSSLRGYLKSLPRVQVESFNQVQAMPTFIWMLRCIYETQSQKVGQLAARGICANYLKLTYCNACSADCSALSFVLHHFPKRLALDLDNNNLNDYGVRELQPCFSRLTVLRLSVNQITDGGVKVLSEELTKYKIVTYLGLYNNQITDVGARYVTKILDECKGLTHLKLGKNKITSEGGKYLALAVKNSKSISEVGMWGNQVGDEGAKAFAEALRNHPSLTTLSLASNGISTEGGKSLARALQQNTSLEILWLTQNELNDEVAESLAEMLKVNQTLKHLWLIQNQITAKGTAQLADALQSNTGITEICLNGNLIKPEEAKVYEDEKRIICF
Chain of Nucleotide-binding oligomerization domain-containing protein 2 (Q9HC29 whole entry, the tested form may be a part): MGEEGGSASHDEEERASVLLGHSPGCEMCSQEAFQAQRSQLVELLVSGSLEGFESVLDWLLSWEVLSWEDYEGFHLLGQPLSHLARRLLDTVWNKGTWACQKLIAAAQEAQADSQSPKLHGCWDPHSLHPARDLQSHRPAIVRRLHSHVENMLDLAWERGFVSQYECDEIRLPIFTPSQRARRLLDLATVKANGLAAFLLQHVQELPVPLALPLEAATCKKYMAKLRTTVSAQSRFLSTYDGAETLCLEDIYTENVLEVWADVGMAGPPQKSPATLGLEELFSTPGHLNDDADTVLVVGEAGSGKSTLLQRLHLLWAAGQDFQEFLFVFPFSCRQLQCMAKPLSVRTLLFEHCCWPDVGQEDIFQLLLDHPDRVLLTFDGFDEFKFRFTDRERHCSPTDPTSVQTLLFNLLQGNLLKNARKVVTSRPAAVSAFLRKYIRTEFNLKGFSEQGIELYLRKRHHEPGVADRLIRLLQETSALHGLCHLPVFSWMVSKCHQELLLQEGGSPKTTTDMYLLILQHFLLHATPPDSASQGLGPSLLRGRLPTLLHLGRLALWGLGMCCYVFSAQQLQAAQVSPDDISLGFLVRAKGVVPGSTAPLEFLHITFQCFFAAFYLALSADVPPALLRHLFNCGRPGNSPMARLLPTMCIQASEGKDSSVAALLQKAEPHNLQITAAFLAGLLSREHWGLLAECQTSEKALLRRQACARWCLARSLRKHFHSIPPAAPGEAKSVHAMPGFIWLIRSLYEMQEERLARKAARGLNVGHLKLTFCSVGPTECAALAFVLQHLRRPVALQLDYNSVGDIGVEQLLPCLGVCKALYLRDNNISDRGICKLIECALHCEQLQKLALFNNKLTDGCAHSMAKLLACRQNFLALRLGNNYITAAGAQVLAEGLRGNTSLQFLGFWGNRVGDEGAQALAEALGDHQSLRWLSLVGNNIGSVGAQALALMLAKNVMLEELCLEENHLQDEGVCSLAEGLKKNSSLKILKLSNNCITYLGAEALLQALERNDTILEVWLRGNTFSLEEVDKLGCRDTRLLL

## COc1ccc(CNC(=S)Nc2ccncc2)cc1
[1]
  IC50: > 150 µM (active)

## N#Cc1ccccc1S(=O)(=O)n1c(N)nc2ccccc21
[2]
  IC50: > 20 µM (inactive)
Tumor necrosis factor
  IC50: > 20 µM (inactive)
HEK293
  IC50: > 20 µM (inactive)
[3]
  IC50: > 20 µM (inactive)

## CC(C)c1ccc(CSc2nnc(-c3ccccn3)n2Cc2cccs2)cc1
[4]
  EC50: 2.17 µM (active)
Mu-type opioid receptor [5]
  EC50: > 32 µM (inactive)
[6]
  EC50: > 32 µM (inactive)
[7]
  EC50: 3.66 µM (active)

## Cc1ccc(CN2C3CCCC2CC(NC(=O)c2ccc(C)cc2)C3)cc1 (configuration not stated)
[8]
  EC50: > 120 µM (not active)
[9]
  EC50: > 120 µM (not active)
H4
  EC50: > 120 µM (not active)
[10]
  IC50: 2.62 µM (active)
Beta-galactosidase
  EC50: > 31.5 µM (inactive)
[11]
  IC50: 0.824 µM
Mu-type opioid receptor [12]
  EC50: > 32 µM (inactive)
[13]
  EC50: > 32 µM (inactive)
[14]
  IC50: > 32 µM (inactive)
Mu-type opioid receptor [15]
  IC50: > 32 µM (inactive)
[16]
  EC50: > 32 µM (inactive)
[17]
  IC50: > 32 µM (inactive)
[18]
  IC50: 3.28 µM (active)
